Paper PMC8942522 (Journal of Enzyme Inhibition and Medicinal Chemistry, 2022)
“And” between values parts separate entries of the source, which are not always exact repeats. Equal values may be shown once. Read-outs that look alike come from different tables or passages of the source.

Experiments:
[1] = tested on: intracellular amastigotes of T. cruzi; experiment: Intracellular T. cruzi in U-2 OS cells; assay type: cell-based, T. cruzi (strain Y); details: for selectivity index [SI vs. THP-1], T. cruzi: CC50 THP-1 / EC50 T. cruzi; for selectivity index [SI vs. U-2 OS], T. cruzi: CC50 U-2 OS / EC50 T. cruzi; for EC50: read-out: Cytotoxicity EC50 T. cruzi, intracellular amastigotes in U-2 OS, 72 h
TcTryS = molecular target: T1, TcTryS (Trypanosoma cruzi, UniProt Q9GT49); experiment: TryS inhibition assay; assay type: biochemical; details: for IC50: IC50 T. cruzi TryS, 1 h pre-incubation, DRC, values italic and bold in Table 1; for % TryS inhibition at 25 μM, T. cruzi: mean ± SD, NA = not active (inhibition ≤ 0.0 ± 5.0%)
T1 sequence (Q9GT49 1-647): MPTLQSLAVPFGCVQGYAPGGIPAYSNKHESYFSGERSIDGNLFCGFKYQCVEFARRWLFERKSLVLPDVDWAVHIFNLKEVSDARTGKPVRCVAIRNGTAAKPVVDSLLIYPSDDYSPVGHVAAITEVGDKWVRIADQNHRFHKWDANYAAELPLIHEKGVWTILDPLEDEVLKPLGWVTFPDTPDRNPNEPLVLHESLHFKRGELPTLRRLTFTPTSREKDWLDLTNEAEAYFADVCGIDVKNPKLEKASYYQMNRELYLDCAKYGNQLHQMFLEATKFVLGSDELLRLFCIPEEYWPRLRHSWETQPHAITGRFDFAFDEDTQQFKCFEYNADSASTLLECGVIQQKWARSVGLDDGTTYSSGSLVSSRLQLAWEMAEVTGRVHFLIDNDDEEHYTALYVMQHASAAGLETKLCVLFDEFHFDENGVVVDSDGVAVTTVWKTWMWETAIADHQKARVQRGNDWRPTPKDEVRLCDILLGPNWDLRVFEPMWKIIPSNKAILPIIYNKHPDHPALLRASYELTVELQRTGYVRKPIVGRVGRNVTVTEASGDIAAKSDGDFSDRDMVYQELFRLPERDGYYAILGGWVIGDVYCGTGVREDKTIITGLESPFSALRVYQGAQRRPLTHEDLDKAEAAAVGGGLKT

[2] = tested on: intracellular amastigotes of L. donovani; experiment: Intracellular L. donovani in THP-1 cells; details: for selectivity index [SI vs. THP-1], L. donovani: CC50 THP-1 / EC50 L. donovani
bloodstream T. brucei = experiment: Cytotoxicity against bloodstream T. brucei; assay type: cell-based, T. brucei (strain 427, cell line 449); details: CC50 THP-1 / EC50 T. brucei
LiTryS = molecular target: T2, LiTryS (Leishmania infantum, UniProt A4I2Z3); experiment: TryS inhibition assay; assay type: biochemical; details: mean ± SD, NA = not active (inhibition ≤ 0.0 ± 5.0%)
T2 sequence (A4I2Z3 1-652): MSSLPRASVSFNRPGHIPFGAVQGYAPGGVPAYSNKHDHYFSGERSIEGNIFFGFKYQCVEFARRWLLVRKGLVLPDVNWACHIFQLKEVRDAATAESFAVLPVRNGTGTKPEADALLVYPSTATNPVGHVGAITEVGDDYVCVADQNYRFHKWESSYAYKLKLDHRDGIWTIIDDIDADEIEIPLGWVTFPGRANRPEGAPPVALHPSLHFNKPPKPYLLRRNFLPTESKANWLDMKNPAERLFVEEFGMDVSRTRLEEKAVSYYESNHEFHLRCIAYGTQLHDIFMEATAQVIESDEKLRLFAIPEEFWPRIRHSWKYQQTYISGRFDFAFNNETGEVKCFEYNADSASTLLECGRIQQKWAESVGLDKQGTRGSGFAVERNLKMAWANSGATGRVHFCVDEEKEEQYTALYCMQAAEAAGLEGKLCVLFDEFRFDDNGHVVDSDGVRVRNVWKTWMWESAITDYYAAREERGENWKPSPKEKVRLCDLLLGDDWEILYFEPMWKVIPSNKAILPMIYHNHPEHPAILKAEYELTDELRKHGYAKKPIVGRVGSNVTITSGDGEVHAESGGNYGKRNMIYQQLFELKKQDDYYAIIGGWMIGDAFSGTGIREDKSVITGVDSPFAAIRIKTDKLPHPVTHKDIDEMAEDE

TbTryS [3] = assay type: biochemical, Trypanosoma brucei; details: 1 h, n = 8; for TryS inhibition ± SD, mass spectrometry sample B: IAM 15 mM, no Ebselen
[4] = molecular target: T3, TryS from Trypanosoma brucei (TbTryS) (Trypanosoma brucei brucei, UniProt Q586P2); experiment: TryS inhibition assay; assay type: biochemical; details: mean ± SD, NA = not active (inhibition ≤ 0.0 ± 5.0%)
T3 sequence (Q586P2 1-627): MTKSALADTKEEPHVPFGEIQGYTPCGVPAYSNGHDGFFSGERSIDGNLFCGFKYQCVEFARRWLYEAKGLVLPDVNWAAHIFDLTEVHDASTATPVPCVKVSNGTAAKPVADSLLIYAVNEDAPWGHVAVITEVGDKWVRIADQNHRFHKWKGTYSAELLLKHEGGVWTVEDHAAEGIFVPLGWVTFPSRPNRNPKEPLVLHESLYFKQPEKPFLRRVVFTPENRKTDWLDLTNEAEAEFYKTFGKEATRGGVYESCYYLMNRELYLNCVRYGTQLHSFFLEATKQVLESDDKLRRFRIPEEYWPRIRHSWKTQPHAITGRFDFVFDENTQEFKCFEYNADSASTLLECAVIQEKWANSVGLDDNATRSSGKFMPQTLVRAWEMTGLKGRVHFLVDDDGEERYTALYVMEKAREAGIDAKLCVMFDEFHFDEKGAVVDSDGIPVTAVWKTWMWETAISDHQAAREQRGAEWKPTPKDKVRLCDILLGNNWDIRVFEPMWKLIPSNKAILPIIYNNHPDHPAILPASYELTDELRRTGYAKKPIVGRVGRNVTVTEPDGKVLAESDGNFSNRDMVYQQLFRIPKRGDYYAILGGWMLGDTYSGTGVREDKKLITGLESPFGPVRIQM

[5] = tested on: redox biosensor hGrx1-roGFP2 in bloodstream T. b. brucei; experiment: Redox assay with hGrx1-roGFP2 reporter cell line; assay type: cell-based, T. brucei brucei (strain 427, cell line 449)
TbTryS [6] = experiment: Dilution and reduction-based; assay type: biochemical, Trypanosoma brucei; details: Ebselen 10 µM 1 h, n = 6
TbTryS [7] = experiment: Time-dependent inhibition assay; assay type: biochemical, Trypanosoma brucei; details: n = 6

O=C(Cn1ccnc1[N+](=O)[O-])NCc1ccccc1 [Benznidazole]
EC100 ([1]; reference drug concentration used in T. cruzi assay): 400 µM

C[n+]1cc2c3c(ccc2c2ccc4cc5c(cc4c21)OCO5)OCO3 [Compound 6, Sanguinarine chloride]
selectivity index [SI vs. THP-1], T. cruzi [1]: 9.5 | selectivity index [SI vs. U-2 OS], T. cruzi [1]: 1.3 | EC50 [1]: 0.37 ± 0.11 µM | IC50 (TcTryS): 40 ± 1.2 µM | selectivity index [SI vs. THP-1], L. donovani [2]: 2

C[C@@H]1[C@H](O)[C@@H](C)/C=C/C=C/C=C/C=C/C=C/C=C/C=C/[C@H](O[C@@H]2O[C@H](C)[C@@H](O)[C@H](N)[C@@H]2O)C[C@@H]2O[C@](O)(C[C@@H](O)C[C@@H](O)[C@H](O)CC[C@@H](O)C[C@@H](O)CC(=O)O[C@H]1C)C[C@H](O)[C@H]2C(=O)O [Amphotericin B]
selectivity index [SI vs. THP-1], L. donovani [2]: > 22

O=C(CCc1c(-c2ccc(F)cc2)[nH]c2ccc(F)cc12)N1CCN(c2ccncc2)CC1 [Compound 14]
% TryS inhibition at 25 μM, T. cruzi (TcTryS): 7.1 ± 4.0% | selectivity index [SI vs. THP-1], T. brucei (bloodstream T. brucei): 11 | % TryS inhibition at 25 μM, L. infantum (LiTryS): 16.8 ± 17.9%

Cc1nc(C(=O)N2CCCC2c2ccc(F)c(F)c2)c(=O)[nH]c1C (stereo not shown) [Compound 18]
% TryS inhibition at 25 μM, L. infantum (LiTryS): 28.5 ± 11.1%

O=C(O)c1cc[c]([Hg][Cl])cc1 [Compound 2, 4-Chloromercuribenzoic acid]
% TryS inhibition at 25 μM, T. cruzi (TcTryS): 32.0 ± 9.7%

NC(=O)CI [IAM, iodoacetamide]
TryS inhibition ± SD, mass spectrometry sample B (TbTryS [3]): 20 ± 9% | TryS inhibition ± SD, mass spectrometry sample B (TbTryS [3]; listed as iodoacetamide): negligible effects on TryS activity

CCN(CC)C(=O)COC(=O)c1c(NC(C)=O)sc2c1CCCC2 [Compound 19]
% TryS inhibition at 25 μM, T. cruzi (TcTryS): 13.3 ± 3.3% | selectivity index [SI vs. THP-1], T. brucei (bloodstream T. brucei): > 4

Cl.Nc1nc(NCC2CCC(CNS(=O)(=O)c3cccc4ccccc34)CC2)nc2ccccc12 (stereo not shown) [Compound 11, CGP 71683 hydrochloride]
% TryS inhibition at 25 μM, T. cruzi (TcTryS): 34.7 ± 7.6% | % TryS inhibition at 25 μM, T. brucei [4]: 14.4 ± 8.2% | selectivity index [SI vs. THP-1], L. donovani [2]: 1.1

CCCC[P+](CCCC)(CCCC)Cc1ccc(NC(=O)[C@H](Cc2ccc3ccccc3c2)NC(=NC2CCCCC2)NC2CCCCC2)cc1.Cl.[Cl-] [Compound 13, WIN 64338 hydrochloride]
% TryS inhibition at 25 μM, T. cruzi (TcTryS): 25.9 ± 6.5% | % TryS inhibition at 25 μM, T. brucei [4]: 9.2 ± 7.4% | selectivity index [SI vs. THP-1], L. donovani [2]: 1.9 | % TryS inhibition at 25 μM, L. infantum (LiTryS): 70.9 ± 6.8%

Clc1ccc(C(c2ccc(Cl)cc2)n2cc[n+](CC(OCc3ccc(Cl)cc3Cl)c3ccc(Cl)cc3Cl)c2)cc1 (stereo not shown) [Compound 7, Calmidazolium chloride]
selectivity index [SI vs. U-2 OS], T. cruzi [1]: 1.1 | EC50 [1]: 1.6 ± 0.1 µM | effect on parasites at 2× EC50 in redox assay ([5]; 2× EC50, 4 h): massive cell death | IC50 (TcTryS): 2.7 ± 0.5 µM

NC(Cc1cc(O)c(O)cc1O)C(=O)O (racemic) [Compound 3, 6-Hydroxy-DL-DOPA]
selectivity index [SI vs. THP-1], T. cruzi [1]: > 2.7 | selectivity index [SI vs. U-2 OS], T. cruzi [1]: 2.7 | EC50 [1]: 34 µM and ~34 µM

O=C1Cc2cc(-c3csc(NCCc4cccs4)n3)cc3c2N1CCC3 [Compound 22]
% TryS inhibition at 25 μM, T. cruzi (TcTryS): 12.9 ± 6.1% | % TryS inhibition at 25 μM, L. infantum (LiTryS; listed as 46, 25 µM): 74%

N=C1Sc2ccccc2C2=NCCCN12 [Compound 9, PD 404,182]
% TryS inhibition at 25 μM, T. cruzi (TcTryS): 10.9 ± 5.6% | % TryS inhibition at 25 μM, L. infantum (LiTryS): 8.9 ± 5.9%

O=C(O)C1=CC(=C(c2ccc(O)c(C(=O)O)c2)c2ccc(O)c(C(=O)O)c2)C=CC1=O [Compound 1, Aurintricarboxylic acid]
inhibition at 25 µM (TcTryS; read-out: % TryS inhibition at 25 μM, T. cruzi): 5.5 ± 2.8%

O=c1c2ccccc2[se]n1-c1ccccc1 [Compound 5, Ebselen]
selectivity index [SI vs. THP-1], T. cruzi [1]: > 36 | selectivity index [SI vs. U-2 OS], T. cruzi [1]: 2.4 | EC50 [1]: 2.8 ± 0.1 µM | oxidation of the biosensor ([5]; 18 µM (2-fold its EC50), 4 h, reverted by DTT 1 mM 20 min): 48% | TryS inhibition ± SD, irreversible inhibition assay, sample A (TbTryS [6]; buffer exchanged, DTT 5 mM 30 min): 89 ± 8.5% | TryS inhibition ± SD, irreversible inhibition assay, sample B (TbTryS [6]; buffer exchanged, no DTT): 97.0 ± 5.0% | TryS inhibition ± SD, irreversible inhibition assay, sample C (TbTryS [6]; no buffer exchange, no DTT): 100 ± 9% | TryS inhibition ± SD, mass spectrometry sample A (TbTryS [3]; Ebselen 20 µM): 100 ± 7% | TryS inhibition ± SD, mass spectrometry sample A (value in parenthesis) (TbTryS [3]; Ebselen 50 µM): 96 ± 8% | TryS inhibition ± SD, time-dependent assay, sample A (TbTryS [7]; Ebselen 5 µM pre-incubated 1 h with TbTryS, reaction started with MM): 43.6 ± 4.5% | TryS inhibition ± SD, time-dependent assay, sample C (TbTryS [7]; Ebselen 5 µM, no pre-incubation): 1.8 ± 4.2% | IC50 (TcTryS): 13.8 ± 1.5 µM | EC50 ([2]; Leishmania donovani, THP-1, 96 h, read-out: Cytotoxicity EC50 L. donovani): > 100 µM | selectivity index [SI vs. THP-1], T. brucei (bloodstream T. brucei): 11
